Assay results as given in patent US6068838A, “Purified multimerase” (Baxter Aktiengesellschaft, priority 1996, dated 2000).

How the values were obtained:
vWF from cryoprecipitate = experiment: Degradation of plasmatic vWF (cryoprecipitate, highest molecular weight multimers) by vWF protease; type: biochemical, human
[1] = test system: Recombinant vWF factor (r-vWF); experiment: Proteolytic fragmentation of recombinant vWF by the vWF protease preparation; type: biochemical
Protocol: The buffer system which had been sufficiently optimized for the instant assaying system thus comprised a dialysis Solution with 1 M urea in 5 mM Tris-HCl at pH 8. Full activation of the protease was achieved by preincubation for 5 minutes at 37° C. with 10 mM barium chloride. In a typical experiment, 50 μl activated protease solution and 100 μl substrate solution were carefully placed on a floating membrane, and incubated in a closed tube for 24 h in a dry oven at 37° C.
Recombinant vWF factor (r-vWF), produced according to FEBS-Letters 375, 259-262 (1995) with a concentration of 104 U (Ag)/ml in 20 mM TBS buffer, pH 8.3, was incubated as described above with the vWF protease preparation according to the invention.
Analysis of the r-vWF and its proteolytic degradation products was performed on 1% and 2% agarose gels, also according to the method of Ruggeri et al. (Blood 57 (1981), 1140-1143). The vWF multimers were made visible by immunoenzymatic staining according to Aihara et al. (Thromb. Haemostas. 55 (1986), 263-267). A rabbit-anti-von Willebrand factor-antiserum (from Dakopatts, Glostrup, Denmark) was used as the primary antibody, and an alkaline phosphatase-conjugated, affinity-purified goat-anti-rabbit IgG H+L-antibody (from Axell Accurate Chemical and Scientific Corp, Westburg, N.Y.) served as the secondary antibody. […]

calf skin collagen = experiment: Incubation of other proteins with the purified protease: collagen; type: biochemical; settings: 0.4 mg/ml, undiluted barium-preincubated protease, 1 M urea, pH 8.0, 24 hours at 37° C.
vWF [2] = experiment: Polypeptide subunits and N-terminal sequence of vWF degraded by the purified protease; type: biochemical, human; settings: from N-terminal sequences of 250, 170 and 140 kD bands
Protocol: For analysis of the amino acid composition and of amino acid sequence, the unreduced peak fraction of the protease and the reduced vWF fragments were dialyzed against 1 mM EDTA, were lyophilized, and were redissolved in 1/50 of the original volume before SDS-PAGE. The HMW protein bands were electrotransferred from the gel to a PVDF (polyvinyliden-difluoride) membrane (BioRad) for 6 hours at 26 V and 0.4 A, using 0.05% SDS, 10% methanol, 0.05 M boric acid, pH 9.0, as transfer buffer. After transfer, the membrane was stained with Coomassie-Blue in 40% methanol, destained in 40% methanol and 10% acetic acid, and air-dried. The excised bands were transferred to the blot cartridge of the Applied Biosystems Model 477A sequenator, which was equipped with on-line high-performance liquid chromatography for analysis of phenylthiohydantoin derivatives, For analysis of amino acid compositions, the protein bands were hydrolyzed in the gas phase over 6N HCl for 22 hours at 110° C. The amino acids were extracted from the PVDF membrane with 70% 0.1 N HCl/30% methanol and were determined by high-performance liquid chromatography as phenylthiocarbamyl derivatives. The amino acid composition of the unreduced protein band coeluted from the Sephacryl S-300 HR column together with the protease activity is shown in Table 1. […]

[3] = Plasmin activity of the protease preparation with chromogenic substrate; type: biochemical; settings: preparation after copper chelate affinity chromatography
Text: Thus, it was necessary to exclude the possibility that the protease preparation might effect a degradation of the von Willebrand factor multimers due to plasmin present in the preparation rather than as a result of the vWF-specific protease.

[4] = Stability of the protease in solution; type: physicochemical
Text: In the absence of these ions the protease was quite stable in solution, and thus it was possible to purify the enzyme by chromatographic procedures taking place for several days at room temperature.

human fibrinogen = experiment: Incubation of other proteins with the purified protease: fibrinogen; type: biochemical; settings: 0.4 mg/ml, undiluted barium-preincubated protease, 1 M urea, pH 8.0, 24 hours at 37° C.
BSA = experiment: Incubation of other proteins with the purified protease: BSA; type: biochemical; settings: 0.2 mg/ml, undiluted barium-preincubated protease, 1 M urea, pH 8.0, 24 hours at 37° C.
[5] = Stability of purified vWF fractions on dialysis incubation; type: physicochemical; settings: fractions 12 to 20, 24 h dialysis incubation at 37° C., absence of inhibitors, citrate/NaCl buffer or 1 M urea buffer
Protocol: vWF was purified by gal filtration of human cryoprecipitate, obtained from 1 l citrated plasma, an a 2.6×35-cm column of Sepharose CL-2B (Pharmacia, Uppsala, Sweden). Elution was performed with 0.13 M sodium chloride, 0.01 M citrate, 0.01 M Tris-HCl, pH 7.4. Fractions of 6 ml were collected at a flow rate of 24 ml/h. vWF antigen was measured by ELISA by using polyclonal rabbit antiserum against human vWF (RAHu/FVIII, from Nordic (Tillburg, The Netherlands), peroxidase-labeled rabbit antihuman-vWF, mouse monoclonal antibody against rabbit IgG (M737), and the kit for immunostaining (K670) (all from Dako (Glostrup, Denmark)), according to the instructions included with the kit.
SDS agarose gels of these assays are illustrated in FIG. 2 (panels A and B).

vWF [6] = settings: after cleavage with plasmin; cited from earlier work
plasmatic vWF = experiment: Degradation of plasmatic vWF (cryoprecipitate) with plasmin; type: biochemical, human; settings: overnight digestion
r-vWF = experiment: Degradation of r-vWF with plasmin; type: biochemical

Molecule: protease: von Willebrand factor cleaving protease purified from human plasma, named multimerase; converts singlet vWF to satellite structure
- multimer pattern of cryoprecipitate vWF on incubation with vWF protease (vWF from cryoprecipitate; cryoprecipitate): loss of multimers could be observed over time
- multimer pattern of highest molecular weight vWF multimers preparation with vWF protease (vWF from cryoprecipitate; laboratory preparation 10 U (Ag)/ml in 20 mm TBS buffer, pH 8.3): clear shift towards lower molecular weight multimers
- multimer pattern of r-vWF after incubation with protease ([1]; after 3 h): loss of the highest multimers
- multimer pattern of r-vWF after incubation with protease ([1]; after 20 hours): oligomers and multimers could no longer be detected
- degradation of calf skin collagen (calf skin collagen): no degradation
- peptide bond of vWF cleaved (vWF [2]): 842Tyr-843Met
- plasmin activity [3]: 0.2 U/ml
- stability of the protease in solution ([4]; in the absence of calcium, strontium and barium ions): quite stable
- protease activity after prolonged preincubation ([4]; prolonged preincubation with calcium, strontium and barium, even at physiological salt and without urea): loss of protease activity
- degradation of human fibrinogen (human fibrinogen): no degradation
- degradation of BSA (BSA): no degradation

Molecule: vWF: vWF purified by gel filtration of human cryoprecipitate, fractions 12 to 20
- stability of vWF (multimer pattern) [5]: very stable

B1: plasmin: human plasmin from Chromogenics, serine protease used as comparison (protein, UniProt P00747 20-580; P00747 581-810, looked up)
Plasmin heavy chain A: EPLDDYVNTQGASLFSVTKKQLGAGSIEECAAKCEEDEEFTCRAFQYHSKEQQCVIMAENRKSSIIIRMRDVVLFEKKVYLSECKTGNGKNYRGTMSKTKNGITCQKWSSTSPHRPRFSPATHPSEGLEENYCRNPDNDPQGPWCYTTDPEKRYDYCDILECEEECMHCSGENYDGKISKTMSGLECQAWDSQSPHAHGYIPSKFPNKNLKKNYCRNPDRELRPWCFTTDPNKRWELCDIPRCTTPPPSSGPTYQCLKGTGENYRGNVAVTVSGHTCQHWSAQTPHTHNRTPENFPCKNLDENYCRNPDGKRAPWCHTTNSQVRWEYCKIPSCDSSPVSTEQLAPTAPPELTPVVQDCYHGDGQSYRGTSSTTTTGKKCQSWSSMTPHRHQKTPENYPNAGLTMNYCRNPDADKGPWCFTTDPSVRWEYCNLKKCSGTEASVVAPPPVVLLPDVETPSEEDCMFGNGKGYRGKRATTVTGTPCQDWAAQEPHRHSIFTPETNPRAGLEKNYCRNPDGDVGGPWCYTTNPRKLYDYCDVPQCAAPSFDCGKPQVEPKKCPGR
Plasmin light chain B: VVGGCVAHPHSWPWQVSLRTRFGMHFCGGTLISPEWVLTAAHCLEKSPRPSSYKVILGAHQEVNLEPHVQEIEVSRLFLEPTRKDIALLKLSSPAVITDKVIPACLPSPNYVVADRTECFITGWGETQGTFGAGLLKEAQLPVIENKVCNRYEFLNGRVQSTELCAGHLAGGTDSCQGDSGGPLVCFEKDKYILQGVTSWGLGCARPNKPGVYVRVSRFVTWIEGVMRNN
modifications: Plasmin
notes: human plasmin from Chromogenics, serine protease used as comparison
- platelet agglutinating activity (ristocetin cofactor) retained by high molecular weight core region of vWF (vWF [6]): about 70%
- degradation of plasmatic vWF (plasmatic vWF): completely degraded
- degradation of recombinant vWF (r-vWF; overnight digestion): completely degraded
- degradation of r-vWF multimers (kinetic examination) (r-vWF; plasmin 0.2 U/ml admixed 1:1 with r-vWF, 37° C.): successive degradation of the multimers over 29 h
- degradation of r-vWF (r-vWF; plasmin concentration reduced to 1:10): degraded more slowly
